Measured values from US11633420B2, “Method of treating leukemia” (Epizyme, Inc., priority 2012, dated 2023).

Assays:
[1] = test system: MOLM-13 (MLL-AF9) cells; experiment: In vitro anti-proliferative assay, MOLM-13; format: cell-based, human; details: up to 14 days
Description: (§1) In Vitro Anti-Proliferative Assay. The potency and selectivity of the anti-proliferative activity of the compounds of the present invention were assessed using a panel of MLL-rearranged and non-MLL-rearranged human leukemia cell lines. The MLL-rearranged panel included cell lines derived from ALL, AML and biphenotypic leukemias harboring MLL-AF4, MLL-AF9 or MLL-ENL fusions. These cell lines recruit DOT1L.
(§2) Exponentially growing cells were plated, in triplicate, in 96-well plates at a density of 3×10^4 cells/well in a final volume of 150 μl. […] Anti-proliferative activity was determined by cell viability measurements every 3-4 days for up to 14 days.

[2] = test system: KOPN-8 (MLL-ENL) cells; experiment: In vitro anti-proliferative assay, KOPN-8; format: cell-based, human; details: up to 14 days
Description: as §1, §2

[3] = test system: HL-60 cells (non-MLL-rearranged); experiment: In vitro anti-proliferative assay, HL-60; format: cell-based, human; details: HL-60, up to 14 days
Description: as §1, §2

[4] = test system: Jurkat cells (non-MLL-rearranged); experiment: In vitro anti-proliferative assay, Jurkat; format: cell-based, human; details: up to 14 days
Description: as §1, §2

[5] = test system: MV4-11 xenograft tumors; experiment: In vivo anti-proliferative assay, mouse xenograft model of MLL-rearranged leukemia; details: 21 days
Description: In Vivo Anti-Proliferative Assay. The in vivo anti-tumor activity of the compounds of the present invention were assessed in a mouse xenograft model of MLL-rearranged leukemia. Four groups of 20 (Groups 1, 3, 4 and 5), and one group of 8 (Group 2) female nude mice (average weight of 0.023 kg) bearing MV4-11 xenograft tumors of sizes ranging from 80-120 mm^3 were implanted subcutaneously with minipumps (Alzet Model 2001). Group 1 received vehicle only from the pump. Group 2 received vehicle only from the pump plus ip injections tid (8 hours apart) of vehicle. […] Pumps were designed to last for 7 days and were exchanged twice to give total infusion duration of 21 days exposure. […] Blood samples were taken from Group 3 on days 7 and 14 at the following time points (3 animals per time point): 5 minutes pre-ip dose, and 15 min, 30 min, 1, 2, and 4 hours post ip dose. On day 21 three hours after the last ip injection, a single blood sample was taken from Group 3. Tumor size was measured every 4 days. After 21 days the study was terminated, and mean TGI calculated.

[6] = test system: MV4;11 (MLL-AF4) cells; experiment: In vitro anti-proliferative assay, MV4;11; format: cell-based, human; details: up to 14 days
Description: as §1, §2

[7] = test system: EOL-1 cells (MLL-PTD); experiment: In vitro anti-proliferative assay, EOL-1; format: cell-based; details: Homo sapiens, EOL1, 336 h; EOL-1 (MLL-PTD), up to 14 days
Description: as §1, §2

CC(C)N(C[C@H]1O[C@@H](n2cnc3c(N)ncnc32)[C@H](O)[C@@H]1O)[C@H]1C[C@@H](CCc2nc3cc(C(C)(C)C)ccc3[nH]2)C1 [Compound 2, (2R,3R,4S,5R)-2-(6-amino-9H-purin-9-yl)-5-((((1r,3S)-3-(2-(5-(tert-butyl)-1H-benzo[d]imidazol-2-yl)ethyl)cyclobutyl)(isopropyl)amino)methyl)tetrahydrofuran-3,4-diol]
anti-proliferative activity (IC50) [1]: potent nanomolar anti-proliferative activity | anti-proliferative activity (IC50) [2]: potent nanomolar anti-proliferative activity | anti-proliferative activity [3]: no activity | anti-proliferative activity [4]: no activity | TGI compared to controls ([5]; 56 mg/kg/day minipump, non-statistically significant): 43% | TGI compared to controls ([5]; 112 mg/kg/day minipump, non-statistically significant): 38% | TGI compared to controls ([5]; Group 3: 112 mg/kg/day minipump plus ip 20 mg/kg tid (172 mg/kg/day), statistically significant): > 70% | anti-proliferative activity (IC50) [6]: potent nanomolar anti-proliferative activity | IC50 [7]: 0.011 µM
